{
  "source": "patent US20200094070A1",
  "about": "“METHOD AND APPARATUS FOR PHOTOACTIVATING NUCLEAR RECEPTORS” (THERALASE BIOTECH INC., priority 2017, published 2020)",
  "key": {"[1]": {"system": "human bladder cancer (T24) cells", "experiment": "LLLT combined with Cisplatin, Presto Blue cell kill, T24 cells", "type": "cell-based", "conditions": "for Cisplatin-mediated cell kill after LLLT: T24, 1.5 ug/ml", "experimental": "(§1) After 6 or 24 hours, the cells were treated with Cisplatin (1 ug/ml for RG2 cells or 1.5 ug/ml for T24 cells), and the plates were returned to the incubator overnight. Cell viability was measured by Presto Blue cell viability assay quantifying fluorescence at using a plate reader at excitation emissions of 560/600 nm. Values were normalized to control cells that were kept in the dark and not treated with LLLT.\nas §1, with “Values will be” for “Values were”, “that are” for “that were”\n(§2) Cells were then treated with either: 1) the ruthenium-based PDC 14C followed by PDT using a green laser light source (FIGS. 24A-24D); 2) the antineoplastic drug Cisplatin (FIGS. 25A-25D). The plates were then returned to the incubator overnight. Cell viability was measured by Presto Blue cell viability assay quantifying fluorescence at using a plate reader at excitation emissions of 560/600 nm. Values were normalized to control cells that were […]."}, "Rat glioma (RG2) cells [2]": {"system": "Rat glioma (RG2) cells", "experiment": "LLLT combined with Cisplatin, Presto Blue cell kill, RG2 cells", "type": "cell-based", "conditions": "for Cisplatin-mediated cell kill after LLLT: RG2, 1 ug/ml", "experimental": "as §1\nas §1, with “Values will be” for “Values were”, “that are” for “that were”\nas §2"}, "[3]": {"system": "human bladder cancer (T24) cells", "experiment": "LLLT combined with 14C PDT, Presto Blue cell kill, T24 cells", "type": "cell-based", "conditions": "for 14C-mediated cell kill after LLLT: T24, 200 nM 14C", "method": "(§3) RG2 cells (15,000 cells) or human bladder cancer (T24) cells (10,000 cells) were seeded in complete DMEM in 96-well culture plates and incubated at 37° C., 5% CO2 overnight. The next day, the cells were washed once with PBS and the medium was replaced with complete DMEM without phenol red or sodium pyruvate. Cells were treated with either 660 nm, 905 nm or a combination of both wavelengths at the indicated fluence doses in J/cm^2. After 6 or 24 hours, the media was replaced with media containing the ruthenium-based PDC 14C (100 nM for RG2 cells and 200 nM for T24 cells) for 1 hour, then the PDC was washed away and the cells were treated with PDT using green laser light (wavelength: 530 nm, fluence 20 J/cm^2) using a 96-laser diode array light source (TLD3000, Theralase Inc. Toronto, ON, Canada), after which the plates were returned to the dark in the incubator overnight. Cell viability was measured by Presto Blue cell viability assay quantifying fluorescence at using a plate reader at excitation emissions of 560/600 nm. PDT-mediated cell kill was calculated by subtracting cell kill due to LLLT first and values were normalized to control cells that were kept in the dark and not treated with LLLT.\n(§4) RG2 cells (7,500 cells) or human bladder cancer (T24) cells (5,000 cells) were seeded in complete DMEM in 96-well culture plates and incubated at 37° C., 5% CO2 overnight. The next day, the cells were washed once with PBS and the medium was replaced with complete DMEM without phenol red or sodium pyruvate, with or without 10 uM GCR antagonist mifepristone for an additional 24 hours. Cells were treated with either 660 nm, 905 nm or a combination of both wavelengths at the indicated energy doses in J/cm^2. After 6 or 24 hours, the media was replaced with media containing the ruthenium-based photodynamic compound 14C (100 nM for RG2 cells and 200 nM for T24 cells) for 3 hours, then the drug was washed away and the cells were treated with PDT using green laser (wavelength: 530 nm, fluence 20 J/cm^2) using a 96-laser diode array light source (TLD-3000, Theralase Inc. Toronto, ON, Canada), and the plates were returned to the dark in the incubator overnight. Cell viability was measured by Presto Blue cell viability assay quantifying fluorescence at using a plate reader at excitation emissions of 560/600 nm."}, "CT26WT tumor cells": {"system": "CT26WT tumor cells", "experiment": "LLLT and PDT in vivo hind leg tumor model", "set-up": "species or system Balb/c mice", "conditions": "LLLT 2.5-20 J/cm^2 daily for 5 days; injection on day 5; suboptimal red light PDT 90 J/cm^2 4 hours after injection", "experimental": "CT26WT tumor cells were implanted in the hind leg of Balb/c mice to develop a hind leg tumor model. […] TLD-1433 (14C) was injected on day 5 of LLLT treatment and suboptimal red light PDT (90 J/cm^2) was performed 4 hours after injection. Tumor size and survival were determined to examine the effect of LLLT on potentiating the effect of 14C-mediated PDT and improving the survival curve."}, "Rat glioma (RG2) cells [4]": {"system": "Rat glioma (RG2) cells", "experiment": "LLLT combined with 14C PDT, Presto Blue cell kill, RG2 cells", "type": "cell-based", "conditions": "for 14C-mediated cell kill after LLLT: RG2, 100 nM 14C", "method": "as §3, §4"}, "RG2 cells [5]": {"system": "RG2 cells", "conditions": "Mifepristone 10 uM, 24 hours", "method": "(§5) RG2 cells (30,000 cells) or human bladder cancer (T24) cells (20,000 cells) are seeded in complete DMEM in 96-well Seahorse culture plates (Agilent technologies) and incubated at 37° C., 5% CO2. The cells are treated for 24 hours with the GCR agonist, dexamethasone, or the GCR antagonist, Mifepristone (10 uM). The cells are then washed once with PBS and the medium replaced with complete DMEM without phenol red or sodium pyruvate. Cells are treated with either 660 nm, 905 nm or a combination of both wavelengths at energy doses from 0.5 to 10 J/cm^2. Cells are incubated for 24 hours. The media is then replaced with XF media without sodium bicarbonate and the plate placed at 37° C. in XF prep station (0% CO2) for 1 hour. Basal ECAR and OCR levels are measured using XFe96 analyzer (Agilent technologies) per the manufacturer's protocol."}, "RG2 cells [6]": {"system": "RG2 cells", "experiment": "Stem-like characteristics of cancer cells (qPCR of stem cell genes, proliferation rate) after LLLT", "type": "cell-based, rat", "conditions": "24 hours pre-treatment", "experimental": "Cells were then treated with 905 nm at fluence doses of 5 or 20 J/cm^2. Cells were incubated for 6 hours, then the cells were washed once with PBS and harvested by TRIzol reagent for RNA extraction (Invitrogen) per the manufacturer's protocol. 2 ug of RNA were used to prepare cDNA using the high-capacity cDNA reverse transcription kit (Thermofisher) and the cDNA was diluted 1:10. 2 μl of cDNA was used per PCR reaction using the SYBR green master mix and qPCR was run on the LightCycler 480 (Roche). Gene expression was normalized to the housekeeping gene HPRT, and values were normalized to control cells that were kept in the dark and not treated with LLLT. Relative analysis of stem cell associated transcription factor genes CD133, OCT4, NANOG, SOX2 and LIN28a, or proliferation promoting genes NESTIN, MSI1, MELK and ALDH1a1. […] Phase contrast images (4×) were taken every 4 hours using the Incucyte ZOOM system to calculate percent confluency overtime. […] Proliferation rate was calculated as the inverse of T (time when cells reach confluency halfway between original seeding density (15%) and final 100% confluency). Data were normalized to the corresponding dark control group (0 J/cm^2) for each drug expressed as 1 (not shown). […]"}, "[7]": {"system": "human bladder cancer (T24) cells", "conditions": "Mifepristone 10 uM, 24 hours", "method": "as §5"}, "[8]": {"conditions": "5 J/cm^2 for 905 nm PW and most conditions with 660 nm CW alone (Example 9A)"}, "[9]": {"conditions": "905 nm PW or combined 905 nm PW and 660 nm CW at 20 J/cm^2 (Example 9A)"}, "[10]": {"conditions": "LLLT 905 nm PW 5 J/cm^2 or 660 nm CW 2.5 J/cm^2 before PDT 530 nm 20 J/cm^2"}, "[11]": {"conditions": "LLLT higher fluence values of 20 and 10 J/cm^2"}, "[12]": {"conditions": "T24, 10 uM pre-treatment, no LLLT"}, "[13]": {"conditions": "T24, 10 uM, LLLT 905 nm 5 J/cm^2, 660 nm 2.5 J/cm^2 or combination 5 J/cm^2"}, "[14]": {"conditions": "RG2, 10 uM pre-treatment, no LLLT"}, "[15]": {"conditions": "RG2, 10 uM, LLLT 905 nm 5 J/cm^2, 660 nm 2.5 J/cm^2 or combination 5 J/cm^2"}},
  "data": [
    {"smiles": "N.N.[Cl][Pt][Cl]", "note": "[Cisplatin]", "values": [
      {"measurement": "Cisplatin-mediated cell kill after LLLT", "setting": "[1]; [8]", "value": "promoted cell survival"},
      {"measurement": "Cisplatin-mediated cell kill after LLLT", "setting": "[1]; [9]", "value": "increased"},
      {"measurement": "Cisplatin effect after LLLT (without Mifepristone)", "setting": "[1]; T24, 905 nm 5 J/cm^2, 660 nm 2.5 J/cm^2 or combination 5 J/cm^2 (Example 19)", "value": "increased"},
      {"measurement": "Cisplatin effective cell kill after LLLT (without Mifepristone)", "setting": "[1]; T24, higher doses 10-20 J/cm^2 (Example 19)", "value": "decreased"},
      {"measurement": "Cisplatin-mediated cell kill after LLLT", "setting": "Rat glioma (RG2) cells [2]; [8]", "value": "promoted cell survival"},
      {"measurement": "Cisplatin-mediated cell kill after LLLT", "setting": "Rat glioma (RG2) cells [2]; [9]", "value": "increased"},
      {"measurement": "Cisplatin effect after LLLT (without Mifepristone)", "setting": "Rat glioma (RG2) cells [2]; RG2, 905 nm 5 J/cm^2, 660 nm 2.5 J/cm^2 or combination 5 J/cm^2 (Example 19)", "value": "increased"},
      {"measurement": "Cisplatin effective cell kill after LLLT (without Mifepristone)", "setting": "Rat glioma (RG2) cells [2]; RG2, higher doses 10-20 J/cm^2 (Example 19)", "value": "decreased"}
    ]},
    {"smiles": "Cc1ccnc(-c2cc(C)ccn2)c1.Cc1ccnc(-c2cc(C)ccn2)c1.[Cl-].[Cl-].[Ru+2].c1csc(-c2ccc(-c3ccc(-c4nc5c6cccnc6c6ncccc6c5[nH]4)s3)s2)c1", "note": "[14C]", "values": [
      {"measurement": "14C-mediated cell kill after LLLT", "setting": "[3]; [10]", "value": "increased"},
      {"measurement": "14C-mediated cell kill after LLLT", "setting": "[3]; [11]", "value": "promoted cell survival"},
      {"measurement": "survival of mice, LLLT plus PDT compared to PDT only", "setting": "CT26WT tumor cells", "value": "synergistically increased the survival"},
      {"measurement": "14C-mediated cell kill after LLLT", "setting": "Rat glioma (RG2) cells [4]; [10]", "value": "increased"},
      {"measurement": "14C-mediated cell kill after LLLT", "setting": "Rat glioma (RG2) cells [4]; [11]", "value": "promoted cell survival"}
    ]},
    {"smiles": "CC#C[C@]1(O)CC[C@H]2[C@@H]3CCC4=CC(=O)CCC4=C3[C@@H](c3ccc(N(C)C)cc3)C[C@@]21C", "note": "[Mifepristone]", "values": [
      {"measurement": "effect on Warburg effect (glycolysis, mitochondrial respiration)", "setting": "RG2 cells [5]", "value": "potentiates the Warburg effect"},
      {"measurement": "effect on LLLT inhibition of the Warburg effect", "setting": "RG2 cells [5]; then LLLT 0.5 to 10 J/cm^2", "value": "reverses the positive effect"},
      {"measurement": "effect of Mifepristone treatment on PDT cell kill", "setting": "[3]; [12]", "value": "did not have any significant effects"},
      {"measurement": "cell kill by Mifepristone treatment alone", "setting": "[3]; T24, 10 uM, 24 hours", "value": "did not induce cell kill"},
      {"measurement": "effect of Mifepristone pre-treatment on the synergistic effect of LLLT on 14C PDT", "setting": "[3]; [13]", "value": "significantly inhibited"},
      {"measurement": "effect of Mifepristone treatment on Cisplatin cell kill", "setting": "[1]; [12]", "value": "did not have any significant effects"},
      {"measurement": "cell kill by Mifepristone treatment alone", "setting": "[1]; T24, 10 uM, 24 hours (Example 19)", "value": "did not induce cell kill"},
      {"measurement": "effect of Mifepristone pre-treatment on the synergistic effect of LLLT on Cisplatin", "setting": "[1]; [13]", "value": "significantly inhibited"},
      {"measurement": "effect of Mifepristone pre-treatment on positive effects of LLLT on stem-like characteristics", "setting": "RG2 cells [6]", "value": "blocked"},
      {"measurement": "effect on Warburg effect (glycolysis, mitochondrial respiration)", "setting": "[7]", "value": "potentiates the Warburg effect"},
      {"measurement": "effect on LLLT inhibition of the Warburg effect", "setting": "[7]; then LLLT 0.5 to 10 J/cm^2", "value": "reverses the positive effect"},
      {"measurement": "effect of Mifepristone treatment on PDT cell kill", "setting": "Rat glioma (RG2) cells [4]; [14]", "value": "did not have any significant effects"},
      {"measurement": "cell kill by Mifepristone treatment alone", "setting": "Rat glioma (RG2) cells [4]; RG2, 10 uM, 24 hours", "value": "did not induce cell kill"},
      {"measurement": "effect of Mifepristone pre-treatment on the synergistic effect of LLLT on 14C PDT", "setting": "Rat glioma (RG2) cells [4]; [15]", "value": "significantly inhibited"},
      {"measurement": "effect of Mifepristone treatment on Cisplatin cell kill", "setting": "Rat glioma (RG2) cells [2]; [14]", "value": "did not have any significant effects"},
      {"measurement": "cell kill by Mifepristone treatment alone", "setting": "Rat glioma (RG2) cells [2]; RG2, 10 uM, 24 hours (Example 19)", "value": "did not induce cell kill"},
      {"measurement": "effect of Mifepristone pre-treatment on the synergistic effect of LLLT on Cisplatin", "setting": "Rat glioma (RG2) cells [2]; [15]", "value": "significantly inhibited"}
    ]}
  ]
}
